In ChEMBL document CHEMBL1201862, “PubChem BioAssay data set” (2004):
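Each compound was tested at five concentrations against cells in 96-well plates for 48 hours. The concentration for 50% growth inhibition is given as GI50.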 Calls of active or inactive are those of the source. No stated cut-off is given here; in the data, active = GI50 up to about 1.1 µM and inactive = higher.

Key:
Assay in all cases: inhibition of tumour cell growth, NCI panel, 48 h
MOLT-4 = test system: MOLT-4
SF-539 = test system: SF-539
OVCAR-8 = test system: OVCAR-8
HL-60 = test system: HL-60
SNB-19 = test system: SNB-19
CCRF-CEM = test system: CCRF-CEM
HCT-116 = test system: HCT-116
UO-31 = test system: UO-31
NCI-H522 = test system: NCI-H522
HOP-62 = test system: HOP-62
SK-MEL-5 = test system: SK-MEL-5
NCI-H23 = test system: NCI-H23
IGROV-1 = test system: IGROV-1
KM12 = test system: KM12
RPMI-8226 = test system: RPMI-8226
K562 = test system: K562
OVCAR-4 = test system: OVCAR-4
ACHN = test system: ACHN
NCI-H226 = test system: NCI-H226

Measured: GI50

C#CN1C(=O)c2c(c(-c3ccccc3)c(-c3ccc(Oc4ccc(-c5c(-c6ccccc6)c6c(c(-c7ccccc7)c5-c5ccccc5)C(=O)N(C#C)C6=O)cc4)cc3)c(-c3ccccc3)c2-c2ccccc2)C1=O
inactive: MOLT-4 > 100 µM | SF-539 > 100 µM | OVCAR-8 > 100 µM | HL-60 > 100 µM | SNB-19 > 100 µM | CCRF-CEM > 100 µM | HCT-116 > 100 µM | UO-31 > 100 µM | NCI-H522 > 100 µM | HOP-62 > 100 µM | SK-MEL-5 > 100 µM | NCI-H23 > 100 µM | IGROV-1 72.6 µM | KM12 > 100 µM | RPMI-8226 > 100 µM | K562 > 100 µM | OVCAR-4 > 100 µM | ACHN > 100 µM

O=C(COc1ccc2c(=O)cc(-c3ccc(Cl)cc3)oc2c1)N1CCN(c2ccccc2)CC1
inactive: MOLT-4 6.56 µM | SF-539 > 100 µM | OVCAR-8 > 100 µM | HL-60 59.3 µM | SNB-19 > 100 µM | HCT-116 55.1 µM | UO-31 1.73 µM | NCI-H226 > 100 µM | HOP-62 > 100 µM | SK-MEL-5 > 100 µM | NCI-H23 > 100 µM | IGROV-1 > 100 µM | KM12 89.9 µM | RPMI-8226 > 100 µM | K562 4.56 µM | OVCAR-4 > 100 µM | ACHN > 100 µM

O=C1N[C@@H](O)[C@@H]2ON=C(c3ccccc3)[C@H]12
inactive: MOLT-4 > 100 µM | SF-539 > 100 µM | OVCAR-8 > 100 µM | HL-60 > 100 µM | SNB-19 > 100 µM | CCRF-CEM > 100 µM | HCT-116 > 100 µM | UO-31 > 100 µM | NCI-H226 > 100 µM | HOP-62 > 100 µM | SK-MEL-5 > 100 µM | NCI-H23 > 100 µM | IGROV-1 > 100 µM | KM12 > 100 µM | RPMI-8226 > 100 µM | K562 > 100 µM | OVCAR-4 > 100 µM | ACHN > 100 µM

O=C(/C=C1/Nc2ccc([N+](=O)[O-])cc2NC1O)c1cccc([N+](=O)[O-])c1 (configuration not stated)
inactive: MOLT-4 64.4 µM | SF-539 20.7 µM | OVCAR-8 19.1 µM | HL-60 32.8 µM | SNB-19 > 100 µM | CCRF-CEM 14.5 µM | HCT-116 26.2 µM | UO-31 35.9 µM | NCI-H522 18.7 µM | NCI-H226 34.8 µM | HOP-62 83.9 µM | SK-MEL-5 70.5 µM | NCI-H23 36.6 µM | IGROV-1 > 100 µM | K562 30.3 µM | OVCAR-4 4.16 µM | ACHN 66.5 µM

CC1(C)CC(=O)C2=C(C1)S/C(=C1/SC3=C(S1)C(=O)CC(C)(C)C3)S2
inactive: MOLT-4 > 251 µM | SF-539 > 251 µM | OVCAR-8 > 251 µM | HL-60 > 251 µM | SNB-19 > 251 µM | CCRF-CEM > 251 µM | HCT-116 > 251 µM | UO-31 > 251 µM | NCI-H522 > 251 µM | HOP-62 > 251 µM | NCI-H23 > 251 µM | IGROV-1 > 251 µM | KM12 > 251 µM | RPMI-8226 > 251 µM | K562 > 251 µM | ACHN > 251 µM

COC(=O)/C=C/c1cc(OC)c(OC)c(OC)c1
inactive: MOLT-4 > 100 µM | SF-539 > 100 µM | OVCAR-8 > 100 µM | HL-60 > 100 µM | SNB-19 > 100 µM | CCRF-CEM > 100 µM | HCT-116 > 100 µM | UO-31 69.3 µM | NCI-H522 46.5 µM | NCI-H226 46.1 µM | HOP-62 > 100 µM | SK-MEL-5 > 100 µM | NCI-H23 > 100 µM | IGROV-1 > 100 µM | KM12 > 100 µM | OVCAR-4 > 100 µM | ACHN > 100 µM

C1=CC(N(c2ccccc2)C2C=CCCC2)CCC1 (configuration not stated)
inactive: MOLT-4 > 10 µM | SF-539 > 100 µM | OVCAR-8 > 100 µM | HL-60 69.8 µM | CCRF-CEM > 100 µM | HCT-116 70.1 µM | NCI-H522 67 µM | SK-MEL-5 84.1 µM | NCI-H23 > 100 µM | IGROV-1 > 100 µM | RPMI-8226 32.4 µM | K562 > 100 µM | ACHN > 100 µM

O=C1Nc2ccccc2C12CCNC2Cc1ccccc1 (configuration not stated)
inactive: MOLT-4 > 100 µM | SF-539 > 100 µM | OVCAR-8 > 100 µM | HL-60 > 100 µM | SNB-19 56.6 µM | CCRF-CEM > 100 µM | HCT-116 > 100 µM | HOP-62 > 100 µM | SK-MEL-5 > 100 µM | NCI-H23 > 100 µM | IGROV-1 > 100 µM | KM12 > 100 µM | RPMI-8226 > 100 µM | K562 > 100 µM | OVCAR-4 > 100 µM | ACHN > 100 µM
